In general, Kd refers to a measure of binding affinity in units of concentration.

Data set [1] has as its system primary brown adipocytes cultured from A-Them1Tg mice. The data set can be described thus: Oxygen consumption rates (OCR) in primary brown adipocytes. The format is cell-based, mouse. Particulars: compounds at their in vitro IC50 concentrations, 30 min, NE 1 μM; vs wild type (DMSO). How it is done: Primary brown adipocytes from 4- to 6-w old wild type and A-Them1Tg mice were isolated, cultured and differentiated as described (Okada et al., 2016). In brief, BAT tissues harvested from 5- to 7-w old mice were pooled, minced and digested with collagenase B (Sigma-Aldrich; St. Louis, MO), and dispersed in growth medium [DMEM/F12 containing 4.5 g/L glucose, 0.1 mM pyruvate, 10 mM HEPES (Thermo Fisher; Waltham, MA) supplemented with 1% penicillin/streptomycin, 1% GlutaMAX (Thermo Fisher; Waltham, MA) and 20% fetal bovine serum]. […] Upon achieving confluence, pre-adipocytes were induced to differentiate for 8 d by culturing for the first 48 h in differentiation medium [DMEM/F12 containing 4.5 g/L glucose, 0.1 mM pyruvate, 10 mM HEPES (Thermo Fisher; Waltham, MA) supplemented with 1% penicillin/streptomycin, 1% GlutaMAX (Thermo Fisher; Waltham, MA), 10% fetal bovine serum, bovine insulin (5 μg/mL; Thermo Fisher; Waltham, MA) and rosiglitazone (1 μM; Sigma Aldrich; St. Louis, MO)] supplemented with dexamethasone (5 μM; Sigma Aldrich; St. Louis, MO) and 3-isobutyl-1-methylxanthine (0.5 mM; Sigma Aldrich; St. Louis, MO) and differentiation medium thereafter. On differentiation d 6 to 8, the adipocyte differentiation media was supplemented with L-(−)-norepinephrine (+) bitartrate (Calbiochem; EMD Millipore; Billerica, MA). Primary brown adipocytes were maintained in a cell culture incubator at 37° C. with 5% CO2.
In primary brown adipocytes on d 8 of differentiation, values of OCR were measured in the presence or absence of compounds using a Seahorse XF96 extracellular flux analyzer (Agilent Technologies; Santa Clara, CA). […] OCR values were measured before and after the exposure of cells to NE (1 μM) and normalized with total live cell count calculated through staining with NucRed Live probe (Thermo Fisher; Waltham, MA) measured at 715 nm emission and 623 nm excitation using a SpectraMax i3X plate reader (Molecular Devices; San Jose; CA).

In data set [2] the target is full-length human Acot12 (Homo sapiens, UniProt Q8WYK0). The data set can be described thus: biochemical.
Method: (§1) Reaction labeling recombinant full-length Them1, Them1l-ΔSTART, START or Acot12 with Monolith RED-Tris-NTA (NanoTemper Technologies; San Francisco, CA) were performed according to the manufacturer's instructions in buffer containing PBS plus 0.5% Tween-20 for 60 min at 22° C. with a molar dye: protein ratio=1:1. […] Working concentrations of compounds were prepared by diluting in microscale thermophoresis buffer. Reactions consisting of 100 nM of fluorescently labeled recombinant protein (full-length Them1, Them1-ΔSTART, START or Acot12) and compounds were loaded onto standard Monolith NT.115 Capillaries (NanoTemper Technologies; San Francisco, CA). Fluorescence was measured using a Monolith NT.115 instrument (NanoTemper Technologies; San Francisco, CA) at 22° C. with instrument parameters adjusted to 40% LED power and medium microscale thermophoresis power. Data were fitted by non-linear regression in GraphPad Prism (GraphPad Software; San Diego, CA).
The nature of data set [3]: in vitro. Particulars: C57BL/6, mouse, primary brown adipocytes.
Method: Cytotoxicities of compounds were determined using a CellTiter-Glo® Luminescent Cell Viability Assay, which measures concentrations of ATP liberated from viable cells (Promega; Madison, WI). […] Tamoxifen (50 μM) was used as a (+) control. CellTiter-Glo reagent (10 μL) was added to each well and incubated on an orbital shaker for 10 min at 22° C. to induce cell lysis and stabilize the luminescent signal. Relative luminescent units (RLU) were determined using a NEO plate reader (BioTek, Winooski, VT).
For data set [4], the target named is T1, full-length Them1 (Homo sapiens, UniProt Q8WXI4).
T1 sequence (Q8WXI4 14-594 isoform Q8WXI4-2 limits assumed): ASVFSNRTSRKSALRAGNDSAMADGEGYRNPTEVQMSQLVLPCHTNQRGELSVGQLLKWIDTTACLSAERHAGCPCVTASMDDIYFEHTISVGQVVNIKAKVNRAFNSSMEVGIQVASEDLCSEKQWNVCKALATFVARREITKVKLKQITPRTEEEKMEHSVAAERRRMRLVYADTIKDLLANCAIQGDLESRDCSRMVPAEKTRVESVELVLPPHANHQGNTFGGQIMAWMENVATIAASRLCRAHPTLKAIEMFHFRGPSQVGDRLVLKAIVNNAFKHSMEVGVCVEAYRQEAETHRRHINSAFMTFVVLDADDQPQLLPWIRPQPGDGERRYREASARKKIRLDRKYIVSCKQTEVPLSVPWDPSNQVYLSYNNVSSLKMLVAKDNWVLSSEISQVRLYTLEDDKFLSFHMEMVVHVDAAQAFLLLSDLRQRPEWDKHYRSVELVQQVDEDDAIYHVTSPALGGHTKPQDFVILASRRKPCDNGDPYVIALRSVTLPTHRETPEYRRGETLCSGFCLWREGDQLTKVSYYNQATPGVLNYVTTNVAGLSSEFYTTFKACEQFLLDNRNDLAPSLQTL
The data set can be described thus: Microscale thermophoresis binding, full-length Them1. As to conditions: in words. (MST reads how a fluorescent partner responds to local heating, with and without ligand.)
Method: (§2) Data represent the mean (s.e.m.) of triplicate determinations. Where not visible, error bars are contained within the symbol sizes.
as §1

Data set [5] deals with T2, recombinant human Them1 (Homo sapiens, UniProt Q8WXI4).
T2 construct: Reaction labeling recombinant full-length Them1; made in house; host or cells: E. coli Shuffle T7
T2 sequence (Q8WXI4 14-594 isoform Q8WXI4-2 limits assumed): T1 sequence (Q8WXI4 14-594 isoform Q8WXI4-2 limits assumed)
The data set can be described thus: Acot activity assay (fluorometric, C14-CoA), inhibition of Them1. The format is biochemical. As to conditions: in words. As to the method: Human Them1 consists of two splice variants (Them1a and Them1b) that are distinguished by an additional 13 amino acids at the C-terminus of the ‘a’ isoform (Adams et al., 2001). […] Sufficient quantities of recombinant Them1 required for the HTS were obtained as a service of the University of Georgia Bioexpression and Fermentation Core Facility (Athens, GA). […] Purity of recombinant Them1 was analyzed by SDS-PAGE followed by Coomassie Brilliant Blue staining. The concentration of recombinant Them1 was determined according to the molar extinction coefficient at 280 nm, which was calculated based on the amino acid sequence (www.expasy.org). Single use aliquots of recombinant Them1 were stored at −80° C. until use to prevent protein precipitation during purification. The pH values of all buffers were adjusted to remain at least two units removed from the pI of recombinant Them1.

The target of data set [6] is T3, Them1-ΔSTART (Homo sapiens, UniProt Q8WXI4).
T3 sequence (Q8WXI4 43-329 isoform Q8WXI4-2 limits assumed): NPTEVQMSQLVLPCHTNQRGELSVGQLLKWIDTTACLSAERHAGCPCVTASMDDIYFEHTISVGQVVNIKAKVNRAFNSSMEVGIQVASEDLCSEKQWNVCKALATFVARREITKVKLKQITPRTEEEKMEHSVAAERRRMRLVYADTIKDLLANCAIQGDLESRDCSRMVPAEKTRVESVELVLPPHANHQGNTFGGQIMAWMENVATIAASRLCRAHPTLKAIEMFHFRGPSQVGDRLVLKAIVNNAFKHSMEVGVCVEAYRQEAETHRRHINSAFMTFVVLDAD
The data set can be described thus: Microscale thermophoresis binding, Them1-ΔSTART. As to conditions: for Kd: read-out: Kd, Thioesterase domains (Them1-ΔSTART ), MST, 100 nM labeled protein, 22° C.; for binding to Them1-ΔSTART: in words.
Method: as §2, §1

Data set [7] addresses T4, Them1 START domain (Homo sapiens, UniProt Q8WXI4).
T4 sequence (Q8WXI4 339-594 isoform Q8WXI4-2): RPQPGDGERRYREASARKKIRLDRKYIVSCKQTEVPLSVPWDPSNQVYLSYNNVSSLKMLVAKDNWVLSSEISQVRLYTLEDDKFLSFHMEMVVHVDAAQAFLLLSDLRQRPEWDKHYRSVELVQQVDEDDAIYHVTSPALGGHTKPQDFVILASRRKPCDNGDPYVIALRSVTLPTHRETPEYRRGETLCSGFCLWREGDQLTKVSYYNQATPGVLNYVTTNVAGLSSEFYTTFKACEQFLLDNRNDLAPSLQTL
In words: Microscale thermophoresis binding, START domain. Particulars: in words.
From the text: A synthetic gene encoding the START domain was cloned into a pNIC28-Bsa4 bacterial expression vector (Novagen, EMD Biosciences; Madison, WI), which introduced an in-frame N-terminal His6 fusion containing a tobacco etch virus protease cleavage site to facilitate tag removal. The pNIC28-Bsa4-START domain plasmid was co-transformed into E. coli BL21 (DE3) (New England Biolabs; Ipswich, MA) competent cells with a pG-Tf2 vector (encoding groES-gorEL-tig chaperones) and then grown to an A600 of 0.5-0.7 in terrific broth. Under conditions of shaking (250 rpm) at 18° C., chaperones were induced by the addition of 5 ng/mL tetracycline HCl for 60 min followed by START domain induction upon the addition of 0.5 mM isoproyl β-D-thiogalactoside for ˜18 h. The bacteria were harvested by centrifugation, and then lysed by sonication with 20 mM Tris-Cl (pH 7.4), 500 mM NaCl, 25 mM imidazole, 5% glycerol, lysozyme, Dnase A, 0.1% Triton X-100, 5 mM β-mercaptoethanol and 100 μM phenylmethylsulfonyl fluoride. Following centrifugation of the bacterial lysate, recombinant START was purified by FPLC using a His affinity column (HisTrap HP column; GE Healthcare; Waukesha, WI). The soluble fraction containing recombinant START was applied to the column after equilibration with 20 mM Tris-Cl (pH 7.4), 500 mM NaCl, 25 mM imidazole and 5% glycerol, and then washed with the same buffer. Recombinant START was eluted from the HisTrap HP column using 20 mM Tris-Cl (pH 7.4), 500 mM NaCl, 500 mM imidazole and 5% glycerol followed by tobacco etch virus protease-mediated His-tag cleavage at 4° C. overnight with simultaneous dialysis into 20 mM Tris-Cl (pH 7.4), 500 mM NaCl and 5% glycerol. Recombinant START was further purified using a Superdex column (HiLoad 16/60 Superdex 75 column; GE Healthcare; Waukesha, WI) in 20 mM Tris-Cl (pH 7.4), 500 mM NaCl and 5% glycerol. Assessment of purity, protein concentration and storage of single use aliquots of recombinant START were performed as described above for recombinant Them1.
Reaction labeling recombinant full-length Them1, Them1l-ΔSTART, START or Acot12 with Monolith RED-Tris-NTA (NanoTemper Technologies; San Francisco, CA) were performed according to the manufacturer's instructions in buffer containing PBS plus 0.5% Tween-20 for 60 min at 22° C. with a molar dye: protein ratio=1:1. […] Working concentrations of compounds were prepared by diluting in microscale thermophoresis buffer. […] Fluorescence was measured using a Monolith NT.115 instrument (NanoTemper Technologies; San Francisco, CA) at 22° C. with instrument parameters adjusted to 40% LED power and medium microscale thermophoresis power. […]

Sequence of full-length human Acot12 (Q8WYK0 whole entry): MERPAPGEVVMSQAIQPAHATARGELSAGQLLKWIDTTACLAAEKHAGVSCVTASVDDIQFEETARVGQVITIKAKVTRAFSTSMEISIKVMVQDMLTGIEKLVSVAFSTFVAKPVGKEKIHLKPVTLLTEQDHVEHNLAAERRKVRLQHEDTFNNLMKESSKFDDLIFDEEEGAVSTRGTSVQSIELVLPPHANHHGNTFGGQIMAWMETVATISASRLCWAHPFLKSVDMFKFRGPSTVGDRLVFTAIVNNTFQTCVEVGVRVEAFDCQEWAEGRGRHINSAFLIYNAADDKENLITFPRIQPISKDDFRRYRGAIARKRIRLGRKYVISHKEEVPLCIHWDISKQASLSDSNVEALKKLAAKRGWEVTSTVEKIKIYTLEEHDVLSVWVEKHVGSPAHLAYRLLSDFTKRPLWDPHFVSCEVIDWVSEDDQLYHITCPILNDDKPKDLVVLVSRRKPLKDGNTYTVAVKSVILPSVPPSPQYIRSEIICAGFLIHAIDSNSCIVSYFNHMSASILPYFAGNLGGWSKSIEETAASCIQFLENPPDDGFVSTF

In the case of `Cc1[nH]c2ccccc2c1C(c1cccs1)N1CCN(Cc2ccccc2)CC1` (centres unmarked) [3-((4-benzylpiperazin-1-yl)(thiophen-2-yl)methyl)-2-methyl-1H-indole], the “OCR in A-Them1Tg brown adipocytes, reversal of Them1 suppression” value (shortened to “OCR in A-Them1Tg brown adipocytes”) in data set [1] is listed as “reversed the suppressive effects of Them1 on values of OCR”. In addition, the Kd in data set [2] was above 125 µM. The CC50 at 48 h in data set [3] is above 125 µM.
`Cc1[nH]c2ccccc2c1C(c1cccs1)N1CCCC1` (centres unmarked) [Compound U2]: the CC50 at 48 h in data set [3] was above 125 µM.
Same read-out and setting: as for `Cc1[nH]c2ccccc2c1C(c1cccs1)N1CCN(C)CC1` (centres unmarked) [Compound U3], the figure is above 125 µM.
In the case of `Cc1[nH]c2ccccc2c1C(c1cccs1)N1CCN(c2ccccc2)CC1` (centres unmarked) [Compound U4], the “Kd / binding affinity to full-length Them1 compared to the parent U1 compound” value in data set [4] was “comparable”. Further, the “IC50 value compared to the parent U1 compound” value in data set [5] is given as “comparable”. The molecule further registered a CC50 at 48 h in data set [3] above 125 µM.
`Cc1[nH]c2ccccc2c1C(c1cccs1)N1CCOCC1` (centres unmarked) [Compound U5] displayed a CC50 at 48 h in data set [3] above 125 µM.
In the case of `Cc1[nH]c2ccccc2c1C(c1cccs1)N1CCCCC1` (centres unmarked) [Compound U6], the “OCR in A-Them1Tg brown adipocytes” value in data set [1] is given as “reversed the suppressive effects of Them1 on values of OCR”. For the same molecule, the Kd in data set [2] and in data set [6] was above 125 µM each time. In data set [3], this molecule came in with a CC50 at 48 h above 125 µM.
As for `CCOC(=O)C1CCN(C(c2cccs2)c2c(C)[nH]c3ccccc23)CC1` (centres unmarked) [Compound U7, ethyl 1-((2-methyl-1H-indol-3-yl)(thiophen-2-yl)methyl)piperidine-4-carboxylate], in data set [4], the “Kd / binding affinity to full-length Them1 compared to the parent U1 compound” value is “comparable”. In data set [7], the “binding affinity to the START domain compared to the parent U1 compound” value was “comparable”. In data set [2], this molecule came in with a Kd above 125 µM. For the same molecule, in data set [6], the “binding to Them1-ΔSTART” value is on record as “did not bind” and the Kd was above 125 µM. For the same molecule, the CC50 at 48 h in data set [3] is above 125 µM.
In the case of `Cc1[nH]c2ccccc2c1C(c1cccs1)N1CCNCC1` (centres unmarked) [Compound U9, 2-methyl-3-(piperazin-1-yl(thiophen-2-yl)methyl)-1H-indole], the “OCR in A-Them1Tg brown adipocytes” value in data set [1] was “reversed the suppressive effects of Them1 on values of OCR”. Further, the Kd in data set [2] and in data set [6] was above 125 µM in each case. The molecule also displayed a CC50 at 48 h in data set [3] above 125 µM.
Consider `CC(=O)N1CCN(C(c2cccs2)c2c(C)[nH]c3ccccc23)CC1` (centres unmarked) [Compound U10, 1-(4-((2-methyl-1H-indol-3-yl)(thiophen-2-yl)methyl)piperazin-1-yl)ethan-1-one], for which the Kd in data set [2] and in data set [6] was above 125 µM in each case. The CC50 at 48 h in data set [3] is above 125 µM.
In the case of `Cc1[nH]c2ccccc2c1C(c1cccs1)N1CCN(C(=O)c2ccccc2)CC1` (centres unmarked) [Compound U13, (4-((2-methyl-1H-indol-3-yl)(thiophen-2-yl)methyl)piperazin-1-yl)(phenyl)methanone], in data set [4], the “Kd / binding affinity to full-length Them1 compared to the parent U1 compound” value is “comparable”. For the same molecule, the “binding affinity to the START domain compared to the parent U1 compound” value in data set [7] is “comparable”. In data set [2], this molecule registered a Kd above 125 µM. Besides, in data set [6], the “binding to Them1-ΔSTART” value is on record as “did not bind” and the Kd was above 125 µM. The molecule further gave a CC50 at 48 h in data set [3] above 125 µM.
Consider `CCOC(=O)N1CCN(C(c2ccc(C)s2)c2c(C)[nH]c3ccccc23)CC1` (centres unmarked) [Compound U16, ethyl 4-((2-methyl-1H-indol-3-yl)(5-methylthiophen-2-yl)methyl)piperazine-1-carboxylate], for which the “Kd / binding affinity to full-length Them1 compared to the parent U1 compound” value in data set [4] is “comparable”. The “binding affinity to the START domain compared to the parent U1 compound” value in data set [7] is reported as “comparable”. For the same molecule, the Kd in data set [2] and in data set [6] was above 125 µM throughout. In addition, the “binding to Them1-ΔSTART” value in data set [6] was “did not bind”. The molecule also registered a CC50 at 48 h in data set [3] above 125 µM.
As to `Cc1[nH]c2ccccc2c1C(c1cccs1)N1CCN(C(=O)OCc2ccccc2)CC1` (centres unmarked) [benzyl 4-((2-methyl-1H-indol-3-yl)(thiophen-2-yl)methyl)piperazine-1-carboxylate], the “OCR in A-Them1Tg brown adipocytes” value in data set [1] is listed as “remained suppressed”. The same molecule registered a Kd in data set [2] above 125 µM.
The molecule `CCOC(=O)N1CCN(C(c2ccccc2)c2c(C)[nH]c3ccccc23)CC1` (centres unmarked) [ethyl 4-((2-methyl-1H-indol-3-yl)(phenyl)methyl)piperazine-1-carboxylate] registered a Kd in data set [2] above 125 µM.
